Measurements published in patent publication US10501421B1, “Substituted benzimidazoles as modulators of Ras signaling” (VANDERBILT UNIVERSITY, priority 2017, dated 2019).
Where a name gives a salt, the structure may show the parent alone.

Tests used:
Son of Sevenless (SOS) = target: T1, Son of Sevenless (SOS) (Homo sapiens, UniProt Q07889); assay: Binding to SOS, fluorescence polarization anisotropy (FPA) probe displacement; conditions: displacement of FITC-conjugated probe (Example 285), affinity calculated from IC50
T1 sequence (Q07889 564-1049 limits assumed): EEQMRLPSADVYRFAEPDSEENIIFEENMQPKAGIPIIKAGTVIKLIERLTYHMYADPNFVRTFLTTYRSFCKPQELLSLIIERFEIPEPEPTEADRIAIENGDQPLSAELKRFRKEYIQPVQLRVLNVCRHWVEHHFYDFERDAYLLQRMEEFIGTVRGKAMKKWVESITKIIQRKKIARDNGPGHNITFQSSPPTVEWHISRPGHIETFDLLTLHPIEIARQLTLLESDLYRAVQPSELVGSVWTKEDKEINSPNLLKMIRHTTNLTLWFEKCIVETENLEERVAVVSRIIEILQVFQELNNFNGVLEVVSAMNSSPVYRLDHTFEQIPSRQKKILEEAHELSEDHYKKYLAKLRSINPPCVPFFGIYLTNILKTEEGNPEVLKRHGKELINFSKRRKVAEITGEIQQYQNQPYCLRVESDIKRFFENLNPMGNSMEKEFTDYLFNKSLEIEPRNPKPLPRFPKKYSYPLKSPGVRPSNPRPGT
Protocol: Compounds of the present invention were tested for their ability to bind to the Ras guanine exchange factor (GEF) Son of Sevenless (SOS). Binding to SOS was measured using a Fluorescence polarization anisotropy (FPA) assay that assesses the ability of a test compound to displace a fluorescent FITC-conjugated compound (Example 285). Briefly, the labeled probe compound is incubated with SOS in buffer. Changes in anisotropy indicative of displacement of the labeled probe for a test compound are assessed over a dose range of test compound. Data was analyzed by plotting fluorescence anisotropy values as a function of compound concentration. IC50 values were determined using a four-parameter dose-response (variable slope) and binding affinities were calculated from this IC50 value. This assay is performed in a method analogous to the assay disclosed in: Burns, M. C.; Sun, Q.; Daniels, R. N.; Camper, D. V.; Kennedy, J. P.; Phan, J.; Olejniczak, E. O.; Lee, T.; Waterson, A. G.; Rossanese, O. W.; Fesik, S. W. “Approach for targeting Ras with small molecules that activate SOS-mediated nucleotide exchange” Proc. Natl. Acad. Sci. 2014; 11(9): 3401-3406. PMCID: PMC3948241.

[1] = target: Ras GEF SOS (Son of Sevenless) (Homo sapiens, UniProt Q07889); assay: SOS-mediated nucleotide exchange on Ras (BODIPY-GDP fluorescence); assay type: biochemical; conditions: SOS-mediated exchange of BODIPY-GDP for GTP on Ras
Chain of Ras GEF SOS (Son of Sevenless) (P01112 1-166 partner limits assumed, one chain of several): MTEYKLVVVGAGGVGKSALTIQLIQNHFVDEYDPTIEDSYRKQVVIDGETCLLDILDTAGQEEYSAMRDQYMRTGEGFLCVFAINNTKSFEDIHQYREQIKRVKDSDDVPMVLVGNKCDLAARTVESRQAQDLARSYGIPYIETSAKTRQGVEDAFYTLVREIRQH
How it was run: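 Ras loaded with BODIPY-GDP was mixed in buffer with test compound, then GTP and SOS. Fluorescence change from labeled GDP/GTP exchange was followed over time, and rates came from single-exponential fits. EC50 came from a four-parameter fit of mean rate against compound concentration.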

| Structure (SMILES) | Ki (Son of Sevenless (SOS)) | EC50 [1] |
| --- | --- | --- |
| Cc1cc2nc(NCCN)n(CC3CCCCC3)c2cc1C [Example 38, N^1-(1-(cyclohexylmethyl)-5,6-dimethyl-1H-benzo[d]imidazol-2-yl)ethane-1,2-diamine trifluoroacetate] | > 5 µM | 5 to 30 µM |
| Cc1cc2nc(N3CCNCC3)n(Cc3ccc(Br)c(Cl)c3)c2cc1C [Example 39, 1-(4-bromo-3-chlorobenzyl)-5,6-dimethyl-2-(piperazin-1-yl)-1H-benzo[d]imidazole trifluoroacetate] | > 5 µM | 1 to 5 µM |
| Cc1cc2nc(N3CCNCC3)n(Cc3ccc(F)c(C(F)(F)F)c3)c2cc1C [Example 40, 1-(4-fluoro-3-(trifluoromethyl)benzyl)-5,6-dimethyl-2-(piperazin-1-yl)-1H-benzo[d]imidazole trifluoracetate] | > 5 µM | 5 to 30 µM |
| Cc1cc2nc(N3CCNCC3)n(Cc3cc(C)c(F)c(C)c3)c2cc1C [Example 41, 1-(4-fluoro-3,5-dimethylbenzyl)-5,6-dimethyl-2-(piperazin-1-yl)-1H-benzo[d]imidazole trifluoroacetate] | > 5 µM | 1 to 5 µM |
| Cc1cc2nc(NCCN)n(Cc3cc(C)c(F)c(C)c3)c2cc1C [Example 42, N^1-(1-(4-fluoro-3,5-dimethylbenzyl)-5,6-dimethyl-1H-benzo[d]imidazol-2-yl)ethane-1,2-diamine trifluoroacetate] | 1 to 5 µM | 1 to 5 µM |
| Cc1cc2nc(NCCCN)n(Cc3cc(C)c(F)c(C)c3)c2cc1C [Example 43, N^1-(1-(4-fluoro-3,5-dimethylbenzyl)-5,6-dimethyl-1H-benzo[d]imidazol-2-yl)propane-1,3-diamine trifluoroacetate] | > 5 µM | 5 to 30 µM |
| Cc1cc2nc(NCCN(C)C)n(Cc3cc(C)c(F)c(C)c3)c2cc1C [Example 44, N^1-(1-(4-fluoro-3,5-dimethylbenzyl)-5,6-dimethyl-1H-benzo[d]imidazol-2-yl)-N^2,N^2-dimethylethane-1,2-diamine trifluoroacetate] | > 5 µM | 5 to 30 µM |
| CNCCN(C)c1nc2cc(C)c(C)cc2n1Cc1cc(C)c(F)c(C)c1 [Example 45, N^1-(1-(4-fluoro-3,5-dimethylbenzyl)-5,6-dimethyl-1H-benzo[d]imidazol-2-yl)-N^1,N^2-dimethylethane-1,2-diamine trifluoroacetate] | > 5 µM | 5 to 30 µM |
| Fc1ccc(Cn2c(C3CCNCC3)nc3ccccc32)cc1 [Example 56, 1-(4-fluorobenzyl)-2-(piperidin-4-yl)-1H-benzo[d]imidazole trifluoroacetate] | > 5 µM | 5 to 30 µM |
| Clc1ccc(Cn2c(C3CCNCC3)nc3ccccc32)cc1 [Example 58, 1-(4-chlorobenzyl)-2-(piperidin-4-yl)-1H-benzo[d]imidazole trifluoroacetate] | > 5 µM | 5 to 30 µM |
| Cc1ccc2nc(N3CCNCC3)n(Cc3ccc(F)c(Cl)c3)c2c1 [Example 61, 1-(3-chloro-4-fluorobenzyl)-6-methyl-2-(piperazin-1-yl)-1H-benzo[d]imidazole trifluoroacetate] | 1 to 5 µM | 1 to 5 µM |
| Fc1ccc(Cn2c(N3CCNCC3)nc3ccc(C4CC4)cc32)cc1Cl [Example 62, 1-(3-chloro-4-fluorobenzyl)-6-cyclopropyl-2-(piperazin-1-yl)-1H-benzo[d]imidazole trifluoroacetate] | > 5 µM | 5 to 30 µM |
| Fc1ccc(Cn2c(N3CCNCC3)nc3ccc(Br)cc32)cc1Cl [Example 63, 6-bromo-1-(3-chloro-4-fluorobenzyl)-2-(piperazin-1-yl)-1H-benzo[d]imidazole trifluoroacetate] | 0.5 to 1 µM | < 1 µM |
| Cc1cc2nc(NCCN)n(Cc3ccc(F)c(Cl)c3)c2cc1Br [Example 64, N^1-(6-bromo-1-(3-chloro-4-fluorobenzyl)-5-methyl-1H-benzo[d]imidazol-2-yl)ethane-1,2-diamine trifluoroacetate] | 0.5 to 1 µM | 1 to 5 µM |
| C=Cc1cc2c(cc1C)nc(NCCN)n2Cc1ccc(F)c(Cl)c1 [Example 65, N^1-(1-(3-chloro-4-fluorobenzyl)-5-methyl-6-vinyl-1H-benzo[d]imidazol-2-yl)ethane-1,2-diamine trifluoroacetate] | 1 to 5 µM | 1 to 5 µM |
| CCc1cc2c(cc1C)nc(N1CCNCC1)n2Cc1ccc(F)c(Cl)c1 [Example 66, 1-(3-chloro-4-fluorobenzyl)-6-ethyl-5-methyl-2-(piperazin-1-yl)-1H-benzo[d]imidazole trifluoroacetate] | > 5 µM | 5 to 30 µM |
| CCc1cc2c(cc1C)nc(N1CCNCC1)n2Cc1ccc(F)c(CC)c1 [Example 67, 6-ethyl-1-(3-ethyl-4-fluorobenzyl)-5-methyl-2-(piperazin-1-yl)-1H-benzo[d]imidazole trifluoroacetate] | > 5 µM | 5 to 30 µM |
| Cc1cc2nc(NCCN)n(Cc3ccc(F)c(Cl)c3)c2cc1Cl [Example 69, N^1-(6-chloro-1-(3-chloro-4-fluorobenzyl)-5-methyl-1H-benzo[d]imidazol-2-yl)ethane-1,2-diamine trifluoroacetate] | 0.5 to 1 µM | < 1 µM |
| Cc1cc2c(cc1Br)nc(N1CCNCC1)n2Cc1ccc(F)c(Cl)c1 [Example 70, 5-bromo-1-(3-chloro-4-fluorobenzyl)-6-methyl-2-(piperazin-1-yl)-1H-benzo[d]imidazole trifluoroacetate] | 1 to 5 µM | 1 to 5 µM |
| NCCNc1nc2ccc(C(F)(F)F)cc2n1Cc1ccc(F)c(Cl)c1 [Example 72, N^1-(1-(3-chloro-4-fluorobenzyl)-6-(trifluoromethyl)-1H-benzo[d]imidazol-2-yl)ethane-1,2-diamine trifluoroacetate] | 1 to 5 µM | 1 to 5 µM |
| Fc1ccc(Cn2c(N3CCNCC3)nc3ccc(Cl)cc32)cc1Cl [Example 73, 6-chloro-1-(3-chloro-4-fluorobenzyl)-2-(piperazin-1-yl)-1H-benzo[d]imidazole trifluoroacetate] | 0.5 to 1 µM | < 1 µM |
| NCCNc1nc2ccc(Cl)cc2n1Cc1ccc(F)c(Cl)c1 [Example 74, N^1-(6-chloro-1-(3-chloro-4-fluorobenzyl)-1H-benzo[d]imidazol-2-yl)ethane-1,2-diamine trifluoroacetate] | 0.5 to 1 µM | < 1 µM |
| Nc1ccccc1-c1cccc2c1nc(N1CCNCC1)n2Cc1ccc(F)c(Cl)c1 [Example 83, 2-(1-(3-chloro-4-fluorobenzyl)-2-(piperazin-1-yl)-1H-benzo[d]imidazol-4-yl)aniline trifluoroacetate] | 1 to 5 µM | 1 to 5 µM |
| Fc1cc(F)cc(Cn2c(N3CCNCC3)nc3c(-c4ccccc4F)cccc32)c1 [Example 90, 1-(3,5-difluorobenzyl)-4-(2-fluorophenyl)-2-(piperazin-1-yl)-1H-benzo[d]imidazole] | 1 to 5 µM | 1 to 5 µM |
| NCCc1cccc2c1nc(N1CCNCC1)n2Cc1ccc(F)c(Cl)c1 [Example 98, 2-(1-(3-chloro-4-fluorobenzyl)-2-(piperazin-1-yl)-1H-benzo[d]imidazol-4-yl)ethan-1-amine trifluoroacetate] | > 5 µM | 1 to 5 µM |
| Cc1cc2c(nc(N3CCNCC3)n2Cc2ccc(F)c(Cl)c2)c(CCN)c1C [Example 101, 2-(1-(3-chloro-4-fluorobenzyl)-5,6-dimethyl-2-(piperazin-1-yl)-1H-benzo[d]imidazol-4-yl)ethan-1-amine trifluoroacetate] | 1 to 5 µM | 1 to 5 µM |
| Cc1cc2c(nc(N3CCNCC3)n2Cc2cc(C)c(F)c(C)c2)c(CCN)c1C [Example 102, 2-(1-(4-fluoro-3,5-dimethylbenzyl)-5,6-dimethyl-2-(piperazin-1-yl)-1H-benzo[d]imidazol-4-yl)ethan-1-amine trifluoroacetate] | > 5 µM | 1 to 5 µM |
| Cc1cc(C2=CCNCC2)c2nc(N3CCNCC3)n(Cc3cc(C)c(F)c(C)c3)c2c1 [Example 103, 1-(4-fluoro-3,5-dimethylbenzyl)-6-methyl-2-(piperazin-1-yl)-4-(1,2,3,6-tetrahydropyridin-4-yl)-1H-benzo[d]imidazole] | < 0.5 µM | 1 to 5 µM |
